The values that follow come from patent US7241782B1, “Polymorph V of torasemide” (PLIVA, farmaceutska industrija, dionicko drustvo, priority 2000, dated 2007).

Series [1] is described as follows: Release of the active substance in water (USP 24). The format is physicochemical. The following applies: for Released torasemide: water, USP 24, 37° C., 50 rpm, 1000 ml. The protocol: This makes the novel polymorph V of torasemide suitable for the preparation of pharmaceutical preparations having immediate or prolonged action. The novel polymorph V of torasemide obtained according to Example 1 of the present invention was subjected to testing the release of the active substance in water at the temperature of 37° C. [table]

Series [2] in a line: Stability at milling and pressing under normal storage conditions. It counts as physicochemical.

With `Cc1cccc(Nc2ccncc2S(=O)(=O)NC(=O)NC(C)C)c1` [novel polymorph V of torasemide, N-(1-methylethylaminocarbonyl)-4-(3-methyl-phenylamino)-3-pyridinesulfonamide], the “Release in comparison with the release profile of known crystalline torasemide modifications” value in series [1] (in water (USP 24), same medium) is “slower release”. Also, the Released torasemide in series [1] (time 0 min) came to 0%; in series [1] (time 15 min), 11.3%; in series [1] (time 30 min), 20.5%; in series [1] (time 45 min), 26.0%; in series [1] (time 60 min) it was 30.0%; in series [1] (time 90 min), 36.0%. Also, the Released torasemide in series [1] (time 120 min) was found to be 40.7%. Also, the “Stability of the crystal form (no transformation into modifications I, II, III or amorphous)” value in series [2] was “stable at milling and pressing”.
